Data set [1] addresses T1, Nucleotide-binding oligomerization domain-containing protein 1 (Homo sapiens, UniProt Q9Y239).
T1 sequence (Q9Y239 whole entry): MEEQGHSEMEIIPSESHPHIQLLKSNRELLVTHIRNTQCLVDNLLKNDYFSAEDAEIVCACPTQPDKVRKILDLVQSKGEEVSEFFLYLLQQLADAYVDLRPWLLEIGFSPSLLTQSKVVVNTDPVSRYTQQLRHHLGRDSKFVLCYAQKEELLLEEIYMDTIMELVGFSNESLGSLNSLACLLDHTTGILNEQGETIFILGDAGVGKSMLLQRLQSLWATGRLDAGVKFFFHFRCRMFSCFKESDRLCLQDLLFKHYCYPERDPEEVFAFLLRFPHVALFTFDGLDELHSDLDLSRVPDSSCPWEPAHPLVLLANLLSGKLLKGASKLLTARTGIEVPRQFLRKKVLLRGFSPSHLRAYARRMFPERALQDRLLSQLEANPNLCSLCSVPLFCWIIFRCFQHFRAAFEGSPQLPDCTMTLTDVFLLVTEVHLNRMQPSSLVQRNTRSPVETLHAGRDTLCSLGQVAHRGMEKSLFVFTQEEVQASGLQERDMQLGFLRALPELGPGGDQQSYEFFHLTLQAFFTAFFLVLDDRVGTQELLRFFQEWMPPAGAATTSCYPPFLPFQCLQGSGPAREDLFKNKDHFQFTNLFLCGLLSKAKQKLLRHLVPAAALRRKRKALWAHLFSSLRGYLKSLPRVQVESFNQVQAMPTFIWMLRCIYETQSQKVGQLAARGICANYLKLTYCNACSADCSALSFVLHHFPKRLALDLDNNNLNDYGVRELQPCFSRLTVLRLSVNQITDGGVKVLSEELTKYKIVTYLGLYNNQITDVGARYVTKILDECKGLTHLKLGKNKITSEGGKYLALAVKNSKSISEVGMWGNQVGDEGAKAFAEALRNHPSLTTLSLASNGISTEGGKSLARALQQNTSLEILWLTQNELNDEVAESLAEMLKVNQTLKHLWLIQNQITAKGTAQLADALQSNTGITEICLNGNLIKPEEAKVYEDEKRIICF
Put plainly: Antagonist activity at human NOD1 expressed in HEK-Blue cells assessed as decrease in SEAP secretion incubated for 3 hrs followed by C12-iE-DAP stimulation for 20 hrs by spectrophotometry. It counts as cell-based, HEK-Blue hNOD1.

The target of data set [2] is T2, Nucleotide-binding oligomerization domain-containing protein 1 (Mus musculus, UniProt Q8BHB0).
T2 sequence (Q8BHB0 whole entry): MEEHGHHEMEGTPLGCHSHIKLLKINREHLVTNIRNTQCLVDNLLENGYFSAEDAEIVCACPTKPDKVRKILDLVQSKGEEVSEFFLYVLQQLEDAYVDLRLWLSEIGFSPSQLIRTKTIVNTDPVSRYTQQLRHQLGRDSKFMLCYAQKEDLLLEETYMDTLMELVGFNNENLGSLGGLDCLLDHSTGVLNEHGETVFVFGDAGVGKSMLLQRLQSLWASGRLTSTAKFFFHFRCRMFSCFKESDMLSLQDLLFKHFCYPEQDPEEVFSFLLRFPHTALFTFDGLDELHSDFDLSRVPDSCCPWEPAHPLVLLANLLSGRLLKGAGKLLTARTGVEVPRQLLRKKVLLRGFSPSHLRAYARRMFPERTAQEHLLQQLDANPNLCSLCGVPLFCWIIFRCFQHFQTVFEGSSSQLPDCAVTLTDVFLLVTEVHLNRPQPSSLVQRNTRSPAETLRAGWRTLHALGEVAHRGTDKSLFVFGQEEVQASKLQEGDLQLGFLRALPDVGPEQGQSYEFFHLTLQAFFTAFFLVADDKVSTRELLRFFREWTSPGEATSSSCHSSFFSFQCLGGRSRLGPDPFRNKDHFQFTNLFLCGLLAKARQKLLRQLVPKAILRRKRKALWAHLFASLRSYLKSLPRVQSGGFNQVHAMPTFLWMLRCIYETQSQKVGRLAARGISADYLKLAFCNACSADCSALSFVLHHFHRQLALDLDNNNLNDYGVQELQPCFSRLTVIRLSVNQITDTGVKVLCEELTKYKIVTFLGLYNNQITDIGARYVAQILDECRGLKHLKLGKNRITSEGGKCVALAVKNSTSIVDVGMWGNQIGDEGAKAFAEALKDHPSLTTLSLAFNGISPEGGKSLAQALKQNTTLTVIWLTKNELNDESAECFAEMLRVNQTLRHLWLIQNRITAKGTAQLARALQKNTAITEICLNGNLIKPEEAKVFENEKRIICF
The data set can be described thus: Antagonist activity at mouse NOD1 expressed in HEK-Blue cells assessed as decrease in SEAP secretion incubated for 3 hrs followed by C12-iE-DAP stimulation for 20 hrs by spectrophotometry. Type of data set: cell-based, HEK-Blue mNOD1.

Data set [3] has as its target T3, Nucleotide-binding oligomerization domain-containing protein 1 (Mus musculus) (UniProt Q8BHB0).
T3 sequence (whole entry): T2 sequence (Q8BHB0 whole entry)
Put plainly: Antagonist activity at mouse NOD1 expressed in HEK-Blue cells assessed as decrease in SEAP secretion at 1 uM incubated for 3 hrs followed by C12-iE-DAP stimulation for 20 hrs by spectrophotometry relative to control. It counts as cell-based. The following applies: HEK-Blue mNOD1, filed as antagonist, time 23.0 hrs.

Data set [4] can be described thus: Metabolic stability in human liver microsomes assessed as half life at 1.25 uM preincubated for 5 mins followed by NADPH addition measured upto 120 mins by LC-MS/MS analysis. It counts as ADME, Microsome. The following applies: time < 125 min. On the technique in general: Liver microsomes are vesicles of endoplasmic reticulum, rich in cytochrome P450 enzymes.
A short description of data set [5]: Metabolic stability in human liver microsomes assessed as intrinsic clearance at 1.25 uM preincubated for 5 mins followed by NADPH addition measured upto 120 mins by LC-MS/MS analysis. It counts as ADME, Microsome. Conditions: time < 125 min, read-out: CLH.
Data set [6] in a line: Metabolic stability in human liver microsomes assessed as hepatic clearance at 1.25 uM preincubated for 5 mins followed by NADPH addition measured upto 120 mins by LC-MS/MS analysis. The following applies: time < 125 min. Type of data set: ADME, Microsome.
Data set [7] is described as follows: Metabolic stability in mouse liver microsomes assessed as half life at 1.25 uM preincubated for 5 mins followed by NADPH addition measured upto 120 mins by LC-MS/MS analysis. It counts as ADME, Microsome. Conditions: time < 125 min.
Data set [8] in a line: Metabolic stability in mouse liver microsomes assessed as intrinsic clearance at 1.25 uM preincubated for 5 mins followed by NADPH addition measured upto 120 mins by LC-MS/MS analysis. Type of data set: ADME, Microsome. The following applies: time < 125 min, read-out: CLH.
Data set [9] can be described thus: Metabolic stability in mouse liver microsomes assessed as hepatic clearance at 1.25 uM preincubated for 5 mins followed by NADPH addition measured upto 120 mins by LC-MS/MS analysis. Conditions: time < 125 min. It counts as ADME, Microsome.
Data set [10] is described as follows: Metabolic stability in mouse hepatocytes assessed as intrinsic clearance measured per million cells at 10 uM measured after 120 mins by LC-MS analysis. It counts as ADME, cell-based, Hepatocyte. The following applies: 2 h.
Data set [11] in a line: Metabolic stability in mouse hepatocytes assessed as half life at 10 uM measured after 120 mins by LC-MS analysis. It counts as ADME, cell-based, Hepatocyte.
Data set [12] can be described thus: Metabolic stability in human hepatocytes assessed as hepatic clearance at 10 uM measured after 120 mins by LC-MS analysis. Type of data set: ADME, cell-based, Hepatocyte.
A short description of data set [13]: Metabolic stability in human hepatocytes assessed as half life at 10 uM measured after 120 mins by LC-MS analysis. It counts as ADME, cell-based, Hepatocyte.
The nature of data set [14]: Metabolic stability in human hepatocytes assessed as intrinsic clearance measured per million cells at 10 uM measured after 120 mins by LC-MS analysis. Type of data set: ADME, cell-based, Hepatocyte. Conditions: read-out: CLH.
Data set [15] addresses T4, Nucleotide-binding oligomerization domain-containing protein 2 (Homo sapiens, UniProt Q9HC29). Put plainly: Antagonist activity at human NOD2 expressed in HEK293 cells assessed as decrease in MDP-stimulated IL-8 release incubated for 24 hrs by fluorescence based assay. It counts as cell-based.
For data set [16], the target named is T3, Nucleotide-binding oligomerization domain-containing protein 1 (Mus musculus). Put plainly: Antagonist activity at mouse NOD1 expressed in HEK-Blue cells assessed as decrease in SEAP secretion at 5 uM incubated for 3 hrs followed by C12-iE-DAP stimulation for 20 hrs by spectrophotometry relative to control. Conditions: HEK-Blue mNOD1, filed as antagonist, time 23.0 hrs. Type of data set: cell-based.

The target of data set [17] is T4, Nucleotide-binding oligomerization domain-containing protein 2. Put plainly: Inhibition of human NOD2 at 1 uM relative to control.

T4 sequence (Q9HC29 whole entry, the tested form may be a part): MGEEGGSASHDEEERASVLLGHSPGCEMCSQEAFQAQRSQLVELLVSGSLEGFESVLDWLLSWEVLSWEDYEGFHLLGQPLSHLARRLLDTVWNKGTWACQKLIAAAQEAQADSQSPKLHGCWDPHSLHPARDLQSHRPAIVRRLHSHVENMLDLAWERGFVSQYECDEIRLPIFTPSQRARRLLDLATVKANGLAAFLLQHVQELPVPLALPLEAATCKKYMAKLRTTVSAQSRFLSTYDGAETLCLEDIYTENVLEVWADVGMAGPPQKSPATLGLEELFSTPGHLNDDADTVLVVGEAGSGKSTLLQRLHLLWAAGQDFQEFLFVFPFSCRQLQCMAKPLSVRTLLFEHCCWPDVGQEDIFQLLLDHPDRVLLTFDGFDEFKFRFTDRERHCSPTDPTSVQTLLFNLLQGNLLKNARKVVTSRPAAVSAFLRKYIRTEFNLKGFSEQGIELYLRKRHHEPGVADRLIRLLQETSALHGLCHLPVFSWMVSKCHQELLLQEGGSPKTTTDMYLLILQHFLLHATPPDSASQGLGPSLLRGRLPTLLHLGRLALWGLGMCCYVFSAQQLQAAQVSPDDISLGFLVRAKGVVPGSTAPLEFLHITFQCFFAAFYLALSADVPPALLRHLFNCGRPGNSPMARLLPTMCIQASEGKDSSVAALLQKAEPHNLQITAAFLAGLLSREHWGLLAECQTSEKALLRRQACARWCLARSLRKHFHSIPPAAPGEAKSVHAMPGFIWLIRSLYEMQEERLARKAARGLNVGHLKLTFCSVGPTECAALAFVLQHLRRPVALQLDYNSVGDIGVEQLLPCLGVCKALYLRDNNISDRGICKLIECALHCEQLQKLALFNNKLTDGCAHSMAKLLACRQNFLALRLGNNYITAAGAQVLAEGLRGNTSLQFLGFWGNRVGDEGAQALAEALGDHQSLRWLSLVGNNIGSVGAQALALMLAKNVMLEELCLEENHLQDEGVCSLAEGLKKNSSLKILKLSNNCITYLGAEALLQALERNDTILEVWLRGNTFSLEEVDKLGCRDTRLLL

As to `O=c1c2ccncc2nc(Cl)n1-c1ccc(Cl)c(NS(=O)(=O)c2ccccc2F)c1`, the IC50 (as a rule, the concentration needed to halve the response being measured) in data set [1] amounted to 4.1 nM; in data set [2], 344 nM. In addition, in data set [3], the inhibition (usually the share of the control response that was lost under treatment) came out at 83.9%. In addition, the half-life at 1.25 µM in data set [4] and in data set [7] was over 186 min throughout. In addition, the microsomal CLint at 1.25 µM in data set [5] and in data set [8] was under 7.4 µL/min/mg throughout. Moreover, the CLhep predicted at 1.25 µM is under 6.1 mL/min/kg in [6] and under 22.1 mL/min/kg in [9]. In addition, the CLH in [10] came out at 307.2 µL/min. Further, the half-life (commonly the time in which the quantity being followed falls by half) at 10 µM in data set [11] turned out to be 2.3 min; in [13], 11.6 min. In data set [12], the CLhep predicted at 10 µM is 18.6 mL/min/kg. For the same molecule, the hepatocyte CLint at 10 µM in data set [14] was 59.5 µL/min/1e6 cells.

For the molecule `Cc1nc2ccc(Cl)cc2c(=O)n1-c1ccc(Cl)c(NS(=O)(=O)c2ccccc2F)c1`, the 50% inhibitory concentration (IC50) in data set [15] was over 20000 nM; in [2], 6920 nM. Besides, the inhibition was 49.4% in [16] and under 10% in data set [17].

Source of the values: ChEMBL document CHEMBL6074678, “Selectively Antagonizing the NOD1-Mediated Inflammatory Signaling Pathway Mitigates the Gastric Inflammation Induced by Helicobacter pylori Infection” (J Med Chem, 2024).
